Assay results as given in patent publication US4719046A, “Crysene derivatives” (Burroughs Wellcome Co., priority 1984, dated 1988).
Structures can show the parent of a compound that is named as a salt.

Assays:
Mycoplasma smegmatis = test: Antibacterial test, Mycoplasma smegmatis (agar dilution); assay type: cell-based
From the text: (§1) Anitbacterial testing against […] (S3264) and Streptococcus pyogenes (CN10) was done with slight modifications using standard agar dilution assays as outlined in Manual of Clinical Microbiology Second Ed., E. H. Lennette. E. H. Spaulding and J. P. Traunt Eds., American Society for Microbiology, Washington, DC, 1974

melanotic melanoma B16 = test: Melanotic Melanoma B16 test; assay type: in vivo, mouse (B6C3-F1); settings: median survival T/C; IP days 1, 5, 9; active if >125%; dose mg/kg: 1C 100, 6G 50, 3 70, 2 75, 18B 70
From the text: Methods for evaluating the antitumor activity of these compounds are essentially those used in the Tumor Panel by the Developmental Therapeutics Program, Division of Cancer Treatment, National Cancer Institute, A. Goldin, et al., Methods in Cancer Research, Vol. XVI, p. 165, Academic Press (1979). Some modifications, in dose level and schedule have been made to increase the testing efficiency.
(§2) CD2-F1 mice, of the same sex, weighing 20±3 g, are used for this test. Control and test animals are injected intraperitoneally with a suspension of ~10^6 viable P388/0 tumor cells on day 0. In each test, several dose levels which bracket the LD20 of the compound are evaluated; each dose level group contains six animals. The test compounds are prepared either in physiologic saline containing 0.05% Tween 80 or distilled water containing 5% dextrose and are administered intraperitoneally on days 1, 5, and 9 relative to tumor implant. Doses are on a mg/kg basis according to individual animals' body weights. The day of death for each animal is recorded, the median identified for each group and the ratios of median survival time for treated (T)/control (C) groups are calculated. The criterion for activity is T/C×100≥120%.
B6C3-F1 mice of the same sex, weighing 20±3 g, are used for this test. A suspension of B16 cells is prepared from a non-necrotic portion of solid tumor tissue obtained from a passage mouse. One gram of tumor is homogenized in 9 mL ice-cold Earle's salts solution and filtered through 1000 mesh screen to remove debris. 0.5 mL of the resulting brei is injected intraperitoneally into each animal. Dosing is carried out as in the P388/0 and L1210 tests. Days of death are recorded for a 60 day period and T/C ratio calculated as in the P388/0 and L1210 tests. The criterion for activity is T/C×100>125%.

[1] = system: Candida albicans (CN 1863); test: Candida albicans antifungal test; assay type: cell-based; settings: Wellcotest sensitivity test agar plus 7% lysed horse blood, CN1863
From the text: Antifungal testing against Candida albicans (CN 1863) was done with slight modifications using a combination of broth and agar dilution assays as outlined in Laboratory Handbook of Medical Mycology, Chapter 6, pages 441-446, M. R. McGinnis, Academic Press, New York, NY, 1980
Medium: Wellcotest ® sensitivity test agar plus 7% lysed horse blood.

[2] = system: Streptococcus pyogenes (CN10); test: Antibacterial test, Streptococcus pyogenes (agar dilution); assay type: cell-based; settings: agar dilution, CN10, read-out: MIC
From the text: as §1

CD2-F1 mice = test: LD20 in the P388/0 test mice; assay type: in vivo, mouse (CD2-F1); settings: IP days 1, 5, 9, doses on a mg/kg basis
Description: as §2
^A Values in parentheses are the highest nontoxic dose where the
LD20 was not determined.

Structure (SMILES): C[C@H](O)[C@@](C)(CO)NCc1cc2c3ccccc3ccc2c2ccccc12 (relative stereo) [Example 6G, (+-)(2R*,3S*)-2-(6-Chrysenylmethylamino)-2-methyl-1,3-butanediol hydrochloride.1/3H2 O]
- MIC (Mycoplasma smegmatis): ≤ 3 µg/mL
- T/C × 100% Excluding 60 day Survivors (melanotic melanoma B16): +160%
- MIC [1]: 100 µg/mL
- MIC [2]: 10 µg/mL
- LD20 (CD2-F1 mice): 53 mg/kg
